Test results reported in ChEMBL document CHEMBL1201862, “PubChem BioAssay data set” (2004).
Activity calls are given as the source filed them.

Tests used:
Troponin, cardiac muscle = Troponin, cardiac muscle (Homo sapiens, UniProt P19429+P45379+P63316); test: compounds desensitizing RTF to calcium – biochemical, fluorescence, cardiac regulated thin filaments, triplicate IC50, dose response (AID 504742); format: protein-complex assay
[1] = target: T1, Small ubiquitin-related modifier 1 (Homo sapiens, UniProt P63165); test: SUMO1 protein interaction blockers, potency – biochemical, fluorescence polarization, uHTS hits, dose response (AID 624382); format: functional; settings: read-out: IC50_Mean
[2] = target: T2, Long-chain-fatty-acid--AMP ligase FadD28 (Mycobacterium tuberculosis, UniProt P9WQ59); test: Fluorescence polarization aasay to screen for inhibitors that compete for the binding of FadD28 to a bisubstrate Measured in Biochemical System Using Plate Reader - 2147-01_Inhibitor_Dose_CherryPick_Activity.; format: functional, Mycobacterium tuberculosis H37Rv
T2 sequence (P9WQ59 whole entry): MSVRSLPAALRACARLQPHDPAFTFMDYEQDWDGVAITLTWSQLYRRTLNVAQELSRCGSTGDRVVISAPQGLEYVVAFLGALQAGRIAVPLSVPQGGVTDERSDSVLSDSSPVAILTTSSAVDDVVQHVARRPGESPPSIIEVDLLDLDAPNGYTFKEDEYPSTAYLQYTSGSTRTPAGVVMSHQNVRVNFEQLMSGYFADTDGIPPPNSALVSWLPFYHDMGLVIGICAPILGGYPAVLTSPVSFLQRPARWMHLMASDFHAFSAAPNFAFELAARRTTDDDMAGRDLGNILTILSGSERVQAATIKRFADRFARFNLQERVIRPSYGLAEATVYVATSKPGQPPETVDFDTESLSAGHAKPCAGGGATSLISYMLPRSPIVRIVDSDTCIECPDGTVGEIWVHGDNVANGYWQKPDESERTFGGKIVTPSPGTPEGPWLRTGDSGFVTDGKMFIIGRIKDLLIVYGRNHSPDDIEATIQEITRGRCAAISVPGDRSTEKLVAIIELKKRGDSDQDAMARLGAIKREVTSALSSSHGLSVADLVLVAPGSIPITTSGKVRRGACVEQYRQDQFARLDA

[3] = target: T1, Small ubiquitin-related modifier 1; test: SUMO1 protein-protein binding blockers, potency – biochemical, FRET, dose response (AID 624383); format: functional; settings: read-out: IC50_Mean
[4] = target: T3, Rac GTPase-activating protein 1 (Homo sapiens, UniProt Q9H0H5); test: blockers of MgcRacGAP-driven Rac1 GTP hydrolysis – biochemical, ADP Hunter fluorescence, primary and confirmatory, confirmation (AID 624330); format: functional
T3 sequence (Q9H0H5 whole entry): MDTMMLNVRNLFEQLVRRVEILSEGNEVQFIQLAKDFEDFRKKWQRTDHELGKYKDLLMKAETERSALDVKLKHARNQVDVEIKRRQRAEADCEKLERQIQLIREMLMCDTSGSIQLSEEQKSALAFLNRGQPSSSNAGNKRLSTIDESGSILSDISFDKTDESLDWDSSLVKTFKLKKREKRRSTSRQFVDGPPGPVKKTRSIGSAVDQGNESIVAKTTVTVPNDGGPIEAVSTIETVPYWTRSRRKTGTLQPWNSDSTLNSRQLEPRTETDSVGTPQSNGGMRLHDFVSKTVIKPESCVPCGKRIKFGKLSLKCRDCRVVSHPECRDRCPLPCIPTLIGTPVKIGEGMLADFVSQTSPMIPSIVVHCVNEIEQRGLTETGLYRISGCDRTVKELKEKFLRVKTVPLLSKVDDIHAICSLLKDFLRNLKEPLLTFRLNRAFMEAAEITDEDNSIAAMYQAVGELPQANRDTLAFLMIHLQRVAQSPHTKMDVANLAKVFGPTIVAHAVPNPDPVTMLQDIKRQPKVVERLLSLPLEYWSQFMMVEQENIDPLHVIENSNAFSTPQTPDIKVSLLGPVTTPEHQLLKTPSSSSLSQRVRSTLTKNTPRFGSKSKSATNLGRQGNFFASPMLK

[5] = target: T4, Low molecular weight phosphotyrosine protein phosphatase (Homo sapiens, UniProt P24666); format: functional; settings: read-out: IC50_Mean
T4 sequence (P24666 whole entry): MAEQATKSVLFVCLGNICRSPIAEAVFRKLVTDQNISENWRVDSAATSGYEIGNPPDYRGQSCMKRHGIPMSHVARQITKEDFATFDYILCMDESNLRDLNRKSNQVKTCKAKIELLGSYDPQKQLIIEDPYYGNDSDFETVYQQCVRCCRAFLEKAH

[6] = target: T4, Low molecular weight phosphotyrosine protein phosphatase; format: functional; settings: read-out: IC50_Mean; remark: listed apart in the source
[7] = NIH-3T3 fibroblast cytotoxicity, dose response, cytotoxicity control, cell-based, fluorescence, Alamar Blue, secondary assay (AID 2327); format: functional;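 further: NIH-3T3 mouse fibroblasts cultured with fluconazole at 8 µg/mL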
[8] = fluconazole-exposed Candida albicans growth modulators – fluorescence, retest, confirmation (AID 2467); format: functional, cell-based
[9] = target: T5, Serine/threonine-protein phosphatase (Candida dubliniensis (strain CD36 / CBS 7987 / NCPF 3949 / NRRLY-17841) (Yeast), UniProt B9W6M3); test: blockers of CaCl2-induced CDRE-lacZ signaling – S. cerevisiae, luminescence, secondary, dose response (AID 2388); format: functional, cell-based;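 further: yeast reporter cells carrying a calcineurin-responsive lacZ construct stimulated with calcium chloride; luminescent beta-galactosidase reporter signal in whole cells rather than isolated phosphatase activity; potency for inhibition where a drop in reporter signal means calcineurin blockade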
T5 sequence (B9W6M3 whole entry): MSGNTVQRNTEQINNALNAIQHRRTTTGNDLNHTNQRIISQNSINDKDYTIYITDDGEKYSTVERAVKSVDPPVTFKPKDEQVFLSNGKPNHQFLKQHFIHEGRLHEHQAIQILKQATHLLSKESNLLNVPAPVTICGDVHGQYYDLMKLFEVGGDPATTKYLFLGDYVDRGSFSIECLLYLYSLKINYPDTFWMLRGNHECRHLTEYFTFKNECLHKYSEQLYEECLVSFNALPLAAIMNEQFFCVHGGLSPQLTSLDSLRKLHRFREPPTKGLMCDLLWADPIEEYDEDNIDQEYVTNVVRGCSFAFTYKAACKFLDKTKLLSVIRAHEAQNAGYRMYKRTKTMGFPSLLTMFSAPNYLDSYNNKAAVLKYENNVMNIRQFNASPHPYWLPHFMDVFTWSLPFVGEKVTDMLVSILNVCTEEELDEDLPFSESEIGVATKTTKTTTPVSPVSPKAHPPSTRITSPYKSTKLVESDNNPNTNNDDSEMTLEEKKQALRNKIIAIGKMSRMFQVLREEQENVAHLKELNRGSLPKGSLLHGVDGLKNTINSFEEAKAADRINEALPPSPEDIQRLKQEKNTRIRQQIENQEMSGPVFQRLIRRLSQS

[10] = target: ATP-dependent molecular chaperone HSP82 (Candida albicans (strain WO-1) (Yeast), UniProt C4YTQ8); test: steroid-induced GRE reporter decrease in yeast – S. cerevisiae, luminescence, Hsp90 inhibitor project, dose response (AID 2400); format: functional, cell-based;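 further: beta-galactosidase luminescence from glucocorticoid response element reporter as proxy for Hsp90 function; inhibitor potency where signal loss means Hsp90 inhibition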
[11] = A549 cell cytotoxicity, dose response, cytotoxicity control, plate reader, cherry-pick, antagonist series (AID 743412); format: functional, cell-based
[12] = toxicity toward HepG2 liver cells – cell-based, plate reader, cherry-pick, antagonist series, cytotoxicity control, dose response (AID 743416); format: functional
[13] = blockers of bursicon-stimulated LGR2 cAMP reporter – cell-based, HEK293, CRE-luciferase reporter, cherry pick, set 2, dose response (AID 743343); format: functional;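 further: transfected cells were stimulated with diluted bursicon conditioned medium after compound addition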
[14] = blockade of melanocortin 4 receptor signaling – cell-based, plate reader, cherry pick, counter-screen for LGR2 antagonist project, dose response (AID 743444); format: functional;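 further: transfected HEK 293 cells stimulated with alpha-MSH peptide; potency of inhibitors of the alpha-MSH evoked signal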
[15] = reduced cellular PGC1a acetyl-lysine signal – cell-based, cherry-picked samples, dose response (AID 720514); format: functional;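 further: potency may reflect raised or lowered acetylation signal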
[16] = target: Ras and Rab interactor 1/Tyrosine-protein kinase ABL1 (Homo sapiens, UniProt P00519+Q13671); format: functional;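 further: biochemical TR-FRET dose-response test measuring inhibition of binding between Rin1 and Abl proteins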
[17] = target: T6, Corticotropin-releasing factor receptor 2/Corticotropin-releasing factor-binding protein (Homo sapiens, UniProt P24387+Q13324); test: Dose Response confirmation of uHTS hits for small molecule antagonists of the CRF-binding protein and CRF-R2 receptor complex.; format: functional; settings: read-out: IC50_Mean
T6 sequence (Q13324 whole entry): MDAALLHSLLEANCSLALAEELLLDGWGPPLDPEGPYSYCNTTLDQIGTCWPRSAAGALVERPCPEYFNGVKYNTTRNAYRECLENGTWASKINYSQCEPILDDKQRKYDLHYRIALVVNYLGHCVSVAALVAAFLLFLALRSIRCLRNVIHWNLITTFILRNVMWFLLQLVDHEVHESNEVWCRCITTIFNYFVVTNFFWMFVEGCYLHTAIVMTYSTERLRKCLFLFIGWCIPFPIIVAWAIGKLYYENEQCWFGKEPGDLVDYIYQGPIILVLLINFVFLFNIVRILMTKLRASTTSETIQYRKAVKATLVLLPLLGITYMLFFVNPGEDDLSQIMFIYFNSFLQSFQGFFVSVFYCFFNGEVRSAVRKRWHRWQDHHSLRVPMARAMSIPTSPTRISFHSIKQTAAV
T6 sequence (P24387 whole entry): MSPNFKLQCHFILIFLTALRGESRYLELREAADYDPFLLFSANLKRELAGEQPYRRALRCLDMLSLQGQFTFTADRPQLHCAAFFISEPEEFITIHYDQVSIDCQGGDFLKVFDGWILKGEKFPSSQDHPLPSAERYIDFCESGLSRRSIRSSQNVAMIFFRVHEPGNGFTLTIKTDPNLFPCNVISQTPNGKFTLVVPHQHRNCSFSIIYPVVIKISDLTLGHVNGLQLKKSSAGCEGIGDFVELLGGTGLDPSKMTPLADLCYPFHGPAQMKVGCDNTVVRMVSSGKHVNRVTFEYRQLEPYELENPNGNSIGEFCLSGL

[18] = target: T6, Corticotropin-releasing factor receptor 2/Corticotropin-releasing factor-binding protein; test: activators of CRF receptor 2 with binding protein – uHTS hits, confirmation (AID 602473); format: functional; settings: read-out: EC50_Mean
[19] = blockers of CRF-binding protein–CRF-R2 complex – cell-based, uHTS hits, 384-well, dose response (AID 651639); format: functional, Homo sapiens; settings: read-out: IC50_Mean
cells = format: functional
[20] = general mammalian cell viability loss – inhibitor set, cherry-pick, set 2, cytotoxicity control for miR-122 modulator project, dose response (AID 720697); format: functional, cell-based

Chain of Ras and Rab interactor 1/Tyrosine-protein kinase ABL1 (P00519 whole entry): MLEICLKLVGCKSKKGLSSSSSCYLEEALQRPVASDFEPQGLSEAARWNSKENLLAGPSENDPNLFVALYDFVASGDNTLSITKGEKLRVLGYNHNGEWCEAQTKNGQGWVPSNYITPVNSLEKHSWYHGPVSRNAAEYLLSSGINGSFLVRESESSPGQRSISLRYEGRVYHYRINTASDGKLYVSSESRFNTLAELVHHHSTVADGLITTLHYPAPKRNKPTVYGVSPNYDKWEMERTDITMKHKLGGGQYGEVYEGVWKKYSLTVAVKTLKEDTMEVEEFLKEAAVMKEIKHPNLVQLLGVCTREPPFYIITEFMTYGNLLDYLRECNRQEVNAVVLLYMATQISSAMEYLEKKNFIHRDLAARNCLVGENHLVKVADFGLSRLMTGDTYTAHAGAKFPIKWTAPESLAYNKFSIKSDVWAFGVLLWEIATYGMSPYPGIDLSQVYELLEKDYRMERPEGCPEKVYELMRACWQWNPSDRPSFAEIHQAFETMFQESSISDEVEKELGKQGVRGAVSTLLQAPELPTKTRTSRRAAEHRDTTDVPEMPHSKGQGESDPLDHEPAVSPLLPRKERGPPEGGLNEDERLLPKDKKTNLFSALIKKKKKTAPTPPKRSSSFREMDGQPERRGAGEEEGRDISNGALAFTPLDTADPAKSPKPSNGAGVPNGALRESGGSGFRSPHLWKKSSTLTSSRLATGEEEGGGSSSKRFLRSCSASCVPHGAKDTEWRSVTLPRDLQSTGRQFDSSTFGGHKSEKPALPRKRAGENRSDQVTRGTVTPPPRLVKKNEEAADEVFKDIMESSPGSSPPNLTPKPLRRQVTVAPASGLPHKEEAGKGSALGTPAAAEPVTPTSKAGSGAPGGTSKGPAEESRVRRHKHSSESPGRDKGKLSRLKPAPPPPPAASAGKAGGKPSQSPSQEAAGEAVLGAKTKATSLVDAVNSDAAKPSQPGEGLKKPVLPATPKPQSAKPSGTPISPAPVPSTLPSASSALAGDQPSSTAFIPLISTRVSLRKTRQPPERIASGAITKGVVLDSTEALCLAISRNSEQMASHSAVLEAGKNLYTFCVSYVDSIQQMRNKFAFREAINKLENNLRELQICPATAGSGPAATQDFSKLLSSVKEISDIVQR
Chain of Ras and Rab interactor 1/Tyrosine-protein kinase ABL1 (Q13671 whole entry): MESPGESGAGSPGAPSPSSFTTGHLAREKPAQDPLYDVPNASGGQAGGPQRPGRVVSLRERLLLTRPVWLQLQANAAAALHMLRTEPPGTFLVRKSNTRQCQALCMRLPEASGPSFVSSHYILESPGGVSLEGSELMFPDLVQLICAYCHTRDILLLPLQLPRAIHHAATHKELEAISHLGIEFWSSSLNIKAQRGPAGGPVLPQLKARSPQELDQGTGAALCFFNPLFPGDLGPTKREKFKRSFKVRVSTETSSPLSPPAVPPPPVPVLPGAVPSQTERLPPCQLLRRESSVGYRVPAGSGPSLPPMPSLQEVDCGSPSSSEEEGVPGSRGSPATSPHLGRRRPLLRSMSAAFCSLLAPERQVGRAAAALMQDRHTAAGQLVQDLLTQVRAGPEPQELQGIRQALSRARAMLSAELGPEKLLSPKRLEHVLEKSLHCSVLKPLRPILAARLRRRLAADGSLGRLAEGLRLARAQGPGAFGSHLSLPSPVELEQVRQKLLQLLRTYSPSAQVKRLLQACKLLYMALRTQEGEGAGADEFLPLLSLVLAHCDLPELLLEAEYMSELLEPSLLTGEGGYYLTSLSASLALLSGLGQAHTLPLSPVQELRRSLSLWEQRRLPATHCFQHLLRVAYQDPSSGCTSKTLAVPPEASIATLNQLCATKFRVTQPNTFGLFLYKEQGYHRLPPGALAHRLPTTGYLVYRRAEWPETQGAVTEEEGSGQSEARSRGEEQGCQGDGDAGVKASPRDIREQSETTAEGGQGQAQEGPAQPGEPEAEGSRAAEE
Chain of ATP-dependent molecular chaperone HSP82 (C4YTQ8 whole entry): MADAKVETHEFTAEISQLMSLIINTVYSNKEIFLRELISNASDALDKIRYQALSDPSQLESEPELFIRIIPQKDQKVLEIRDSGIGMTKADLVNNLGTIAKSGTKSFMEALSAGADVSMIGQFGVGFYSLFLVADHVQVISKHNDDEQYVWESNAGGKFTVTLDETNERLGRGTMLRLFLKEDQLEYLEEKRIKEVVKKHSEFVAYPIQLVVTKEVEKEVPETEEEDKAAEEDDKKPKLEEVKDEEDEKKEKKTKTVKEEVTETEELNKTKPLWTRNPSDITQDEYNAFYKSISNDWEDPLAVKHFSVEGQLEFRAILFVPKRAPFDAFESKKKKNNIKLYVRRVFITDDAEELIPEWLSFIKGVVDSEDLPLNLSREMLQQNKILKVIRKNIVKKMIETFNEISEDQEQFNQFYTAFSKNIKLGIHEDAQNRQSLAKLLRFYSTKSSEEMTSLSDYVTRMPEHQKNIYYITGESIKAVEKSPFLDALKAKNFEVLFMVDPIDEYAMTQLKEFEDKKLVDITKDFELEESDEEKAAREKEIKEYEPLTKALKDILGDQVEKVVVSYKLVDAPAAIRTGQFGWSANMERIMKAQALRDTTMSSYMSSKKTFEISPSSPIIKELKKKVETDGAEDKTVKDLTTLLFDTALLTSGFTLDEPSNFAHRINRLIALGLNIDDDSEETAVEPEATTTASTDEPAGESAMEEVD
T1 sequence (P63165 whole entry): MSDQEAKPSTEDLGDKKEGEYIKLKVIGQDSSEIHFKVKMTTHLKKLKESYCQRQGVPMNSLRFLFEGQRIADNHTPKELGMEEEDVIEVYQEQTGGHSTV

Compound: O=C(O)c1cc(O)c2c(c1)[C@@H]([C@H]1c3cc(C(=O)O)cc(O)c3C(=O)c3c(O[C@@H]4O[C@H](CO)[C@@H](O)[C@H](O)[C@H]4O)cccc31)c1cccc(OC3O[C@H](CO)[C@@H](O)[C@H](O)[C@H]3O)c1C2=O (stereo partly drawn)
- IC50 (Troponin, cardiac muscle): 1.82 µM (active)
- IC50 [1]: 30.6 µM (inactive)
- AC50 [2]: > 100 µM (inactive)
- IC50 [3]: 1.06 µM (active)
- IC50 [4]: 12 µM (active)

Compound: O=c1cc(-c2cc3ccccc3o2)c2cc(O)ccc2o1
- IC50 [5]: 24.1 µM (inactive)
- IC50 [6]: 19.7 µM (active)

Compound: COCCn1c(=O)[nH]c(=O)c2cc(C(=O)c3cc(Cl)ccc3O)cnc21
- EC50 [7]: > 160 µM (inactive)
- EC50 [8]: 1.12 µM (active)
- EC50 [9]: > 180 µM (inactive)
- EC50 [10]: > 160 µM (inactive)

Compound: COc1ccc(C(=O)Nc2ccc3ncccc3c2)cc1
- AC50 [11]: 37.8 µM (active)
- AC50 [12]: 47 µM (active)
- AC50 [13]: 5.45 µM (active)
- AC50 [14]: 7.29 µM (active)

Compound: COc1ccc(Nc2ccnc3ccccc23)cc1
- IC50 [5]: 30.1 µM (inactive)
- IC50 [6]: 23.4 µM (inactive)
- AC50 [15]: 28.3 µM (active)

Compound: Cc1c(C(=O)NCCN2CCOCC2)oc2ccc(Br)cc12
- IC50 [16]: 1.02 µM (active)

Compound: CSc1c(C#N)sc(=S)n1-c1ccc(C)cc1
- IC50 [17]: 11.9 µM (active)
- EC50 [18]: > 53 µM (inactive)
- IC50 [19]: > 20 µM (inactive)

Compound: N#CN=C(Nc1cccc(F)c1)SCc1ccccc1F
- IC50 [17]: 6.82 µM (active)
- EC50 [18]: > 53 µM (inactive)
- IC50 [19]: 1.67 µM (active)

Compound: O=C(COc1cccc2ccccc12)Nc1nc2ccccc2[nH]1
- IC50 (cells): 6.2 µM (active)
- AC50 [20]: 8.06 µM (active)

Compound: CCCn1nc(C(=O)N(C)CC(=O)Nc2ccc(OCC)c(OCC)c2)c2ccccc2c1=O
- IC50 [16]: 10.5 µM (inactive)

Compound: Oc1nc2ccccc2n1C1CCN(C(c2ccnc3ccccc23)c2nnnn2-c2ccc3c(c2)OCCO3)CC1 (stereo not drawn)
- IC50 [16]: 15.3 µM (inactive)

Compound: Nc1nc(=O)[nH]cc1F [FLUCYTOSINE]
- EC50 [7]: > 160 µM (inactive)
- EC50 [8]: 0.252 µM (active)
- EC50 [9]: > 180 µM (inactive)
- EC50 [10]: > 160 µM (inactive)
